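Exposure lasted 48 hours, with cells grown in 96-well plates and compounds tested at five concentrations. TGI: concentration producing complete growth inhibition.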
Experiments:
Test in all cases: NCI tumour cell line growth inhibition, 48 h
[1] = tested on: SF-539 CNS
[2] = tested on: EKVX NSCLC
[3] = tested on: DLD-1 colon
[4] = tested on: OVCAR-5 ovarian
[5] = tested on: U251 CNS
[6] = tested on: OVCAR-8 ovarian
[7] = tested on: XF 498 CNS
[8] = tested on: NCI-H460 lung
[9] = tested on: KM20L2 colon
[10] = tested on: RXF 393 renal
[11] = tested on: SK-MEL-5 melanoma
[12] = tested on: K-562 leukemia
[13] = tested on: NCI-H522 lung
[14] = tested on: OVCAR-4 ovarian
[15] = tested on: OVCAR-3 ovarian
[16] = tested on: RPMI-8226 leukemia
[17] = tested on: HCT-116 colon
[18] = tested on: UACC-62 melanoma
[19] = tested on: LOX IMVI melanoma
[20] = tested on: HOP-62 NSCLC
[21] = tested on: SW-620 colon
[22] = tested on: DMS 114 small cell lung
[23] = tested on: CCRF-CEM leukemia
[24] = tested on: NCI/ADR-RES ovarian
[25] = tested on: P388 leukemia
[26] = tested on: CAKI-1 renal
[27] = tested on: SN12K1 renal
[28] = tested on: DMS 273 small cell lung
[29] = tested on: KM12 colon
[30] = tested on: MCF7 breast
[31] = tested on: A549 NSCLC
[32] = tested on: SNB-75 CNS
[33] = tested on: HL-60(TB) leukemia
[34] = tested on: SF-268 CNS
[35] = tested on: IGROV1 ovarian
[36] = tested on: NCI-H226 lung
[37] = tested on: SN12C renal
[38] = tested on: MOLT-4 leukemia
[39] = tested on: MALME-3M melanoma
[40] = tested on: P388/ADR leukemia
[41] = tested on: M19-MEL melanoma
[42] = tested on: UO-31 renal
[43] = tested on: HOP-92 NSCLC
[44] = tested on: COLO 205 colon
[45] = tested on: SNB-19 CNS
[46] = tested on: NCI-H23 lung
[47] = tested on: SNB-78 CNS
[48] = tested on: HOP-18 NSCLC
[49] = tested on: SK-MEL-28 melanoma
[50] = tested on: HCC-2998 colon
[51] = tested on: A498 renal
[52] = tested on: SK-MEL-2 melanoma
[53] = tested on: HCT-15 colon
[54] = tested on: HT29 colon
[55] = tested on: UACC-257 melanoma
[56] = tested on: SF-295 CNS
[57] = tested on: SK-OV-3 ovarian

Measured: TGI

O=C(O)CCC(NC(=O)c1ccc(Nc2nc3ccc(C(F)(F)F)cc3nc2-c2ccccc2)cc1)C(=O)O (configuration not stated)
> 100 µM: all assays above

Reference: PubChem BioAssay (NCI)
